Experimental data reported in US12115224B2, “Polypeptide conjugates for intracellular delivery of stapled peptides” (Ohio State Innovation Foundation, priority 2017, dated 2024).
Bridge positions count the residues as written; N and C are the ends. Square brackets hold non-standard residues; d marks the D form. Peptide text beside a SMILES is read from it. I, II: the chains in the order shown. 2Nal = N[C@@H](Cc1ccc2ccccc2c1)C(=O)O; NF = 5(6)-carboxynaphthofluorescein; AEEA = NCCOCCOCC(=O)O; βAla = NCCC(=O)O

Columns and labels:
[1] = cited from earlier work
[2] = tested on: SJSA-1 cells; experiment: Annexin V/propidium iodide flow cytometry assay; assay type: cell-based; conditions: 48-hour treatment, 10% FBS
Experimental: The percentage of Annexin V+/PI+ and Annexin V+/PI− SJSA-1 cells after 48-hour treatment of inhibitors in presence of 10% FBS was measured.
The mode of action (MOA) of CPP9-sPDI upon cytosolic delivery of the MDM2 inhibitor was also considered. […] This behavior is similar to Nutlin-3a, which is known to induce p53-dependent apoptosis in certain cancer cell lines. In this study, the percentage of Annexin V+/PI+ and Annexin V+/PI− SJSA-1 cells is determined after 48-hour treatment of inhibitors in presence of 10% FBS.

[3] = Serum stability in 25% human serum; assay type: in vitro ADME; conditions: 37° C., read-out: compound detected at the end of the study
Experimental: FIG. 25 is a graph showing the stability of CPP9-sPDI (structure 23) in 25% human serum at 37° C.
The serum stability of CPP9-sPDI was evaluated by incubating the conjugate in 25% human serum at 37° C. over 24 hours. […] The observed level of serum stability (cargo region) may impact the IC50 values measured for this compound.

[4] = Anti-proliferation MTT assay, SJSA-1; assay type: cell-based; conditions: 72-hour treatment, 0-20 μM, 10% FBS, read-out: IC50 (cytotoxicity)
Experimental: IC50 values (μM) are provided for each test compound.
In addition, the anti-proliferative effects of CPP9-sPDI (structure 23) were evaluated. FIG. 23 compares the effects of CPP9-sPDI, Nutlin-3a, R9-sPDI, sPDI, CPP9-sPDI(F10A) and Tat-sPDI (0-20 μM) on the viability of SJSA-1 cell line after 72-hour treatment in the presence of 10% FBS as measured by MTT assay.

[5] = tested on: HeLa cells; experiment: Live-cell confocal microscopy of FITC-labeled peptides; assay type: cell-based; conditions: 5 μM FITC-labeled peptide, 2 h, 37° C.
Experimental: HeLa cells were treated with 5 μM FITC-labeled peptide for 2 h at 37° C., washed to remove excess peptide, and subjected to live-cell confocal microscopy. I, DIC; II, GFP channel; and III, overlap of I and II.
Four pairs of the peptides from Table 6 were also labeled with FITC and their entry into HeLa cells were monitored by live-cell confocal microscopy (FIG. 4).
To assess delivery aptitude of each conjugate, peptides 22-25 were labeled with FITC and their entry into HeLa cells was monitored by live-cell confocal microscopy (FIG. 21). HeLa cells were treated with 5 μM FITC-labeled peptide for 2 h at 37° C. and washed to remove excess peptide.

[6] = Aqueous solubility (observation)

For 5(6)-carboxynaphthofluorescein [NF], the pKa [1] is given as 7.8.

For `CC(=O)N[C@@H](CC(C)C)C(=O)N[C@H](C(=O)N[C@@H](Cc1ccccc1)C(=O)N[C@H]1CC(=O)NCCCC[C@@H](C(=O)N[C@@H](CCC(N)=O)C(=O)N[C@@H](CC(C)C)C(=O)N[C@H](C(=O)N[C@@H](CO)C(=O)NCCOCCOCC(=O)N[C@@H](CCCCNC(=O)CC[C@@H]2NC(=O)[C@@H](CCCNC(=N)N)NC(=O)[C@H](CCCNC(=N)N)NC(=O)[C@@H](CCCNC(=N)N)NC(=O)[C@H](CCCNC(=N)N)NC(=O)[C@H](Cc3ccc4ccccc4c3)NC(=O)[C@@H](Cc3ccccc3)NC2=O)C(N)=O)[C@@H](C)O)NC(=O)[C@H](Cc2c[nH]c3ccccc23)NC(=O)[C@H](Cc2ccc(O)cc2)NC(=O)[C@H](Cc2c[nH]cn2)NC1=O)[C@@H](C)O` [Peptide 23] (I: Ac-LTFDHYWKQLTS[AEEA]K-NH2 / II: cyclo([2Nal]R[dR]R[dR]E[dF]); lactam I:4-I:8; amide I:14-II:6), the “mode of anti-proliferative action (Annexin V+/PI+ and Annexin V+/PI− cells)” value [2] was “mediated by apoptotic pathways”.

In the case of `CC(=O)N[C@@H](CC(C)C)C(=O)N[C@H](C(=O)N[C@@H](Cc1ccccc1)C(=O)N[C@H]1CC(=O)NCCCC[C@@H](C(=O)N[C@@H](CCC(N)=O)C(=O)N[C@@H](CC(C)C)C(=O)N[C@H](C(=O)N[C@@H](CO)C(=O)NCCOCCOCC(=O)N[C@@H](CCCCNC(=O)CC[C@@H]2NC(=O)[C@@H](CCCNC(=N)N)NC(=O)[C@H](CCCNC(=N)N)NC(=O)[C@@H](CCCNC(=N)N)NC(=O)[C@H](CCCNC(=N)N)NC(=O)[C@H](Cc3ccc4ccccc4c3)NC(=O)[C@@H](Cc3ccccc3)NC2=O)C(N)=O)[C@@H](C)O)NC(=O)[C@H](Cc2c[nH]c3ccccc23)NC(=O)[C@H](Cc2ccc(O)cc2)NC(=O)[C@H](Cc2cnc[nH]2)NC1=O)[C@@H](C)O` [Peptide 23] (I: Ac-LTFDHYWKQLTS[AEEA]K-NH2 / II: cyclo([2Nal]R[dR]R[dR]E[dF]); lactam I:4-I:8; amide I:14-II:6), the remaining at 24 h [3] is reported as 25%, the IC50 [4] is reported as 3.86 µM and the “cellular uptake by confocal microscopy” value [5] is reported as “most effective conjugate for delivering sPDI”.

With “NF-βA-TYRGAAQCAAQCVREV-NH2 ({NF-βAla}-TYRGAAQCAAQCVREV-NH2; bridge 8-12; not fully specified (bridges)) [Peptide 20]” the aqueous solubility [6] was “limited solubility”.
